In US6025356A, “Disubstituted trans-3,4,4a,5,6,10b-hexahydro-2H-naphth[1,2-b]-1,4-oxazines” (Adir et Compagnie, priority 1997, dated 2000):

How the values were obtained:
[1] = biological target: T1, human dopamine D3 receptor (Homo sapiens, UniProt P35462); assay: human D2 and D3 receptor binding study (D3)
T1 construct: expressed in transfected cells
Procedure: (§1) A. In vitro: human D2 and D3 receptor binding study
(§2) CHO (Chinese Hamster Ovary) cells are transfected in a stable manner with the gene encoding the human dopamine D2 or D3 receptor in accordance with methods known from the literature. The native cells are deficient in the enzyme DHFR (DiHydroFolate Reductase). […] The transfections are carried out using Lipofectin (Gibco). The CHO cells co-transfected with the human D2 receptor and the phleomycin resistance gene are selected for their resistance to the presence of that antibiotic in the culture medium. The cells transfected with the human D3 receptor are selected in the presence of methotrexate in a medium containing no hypoxanthine/thymidine. The compositions of the culture media used are: for CHO-D2 : DMEM (Dulbecco's Modified Eagle Medium) supplemented with 10% foetal calf serum and hypoxanthine/thymidine; and for CHO-D3 : DMEM supplemented with 10% dialysed foetal calf serum. The cells are harvested at confluence and the membranes are then prepared.
(§3) After a few minutes in the presence of 0.2% trypsin, the cells are recovered and centrifuged at 2,000 g for 5 minutes. […]
(§4) The ranges of concentration of each compound include at least seven points determined in triplicate, each experiment being repeated at least twice.
(§5) The recovered filters are then counted using a gamma counter. […]

[2] = biological target: T2, human dopamine D2 receptor (Homo sapiens, UniProt P14416); assay: human D2 and D3 receptor binding study (D2)
T2 construct: expressed in transfected cells
T2 sequence (P14416 whole entry): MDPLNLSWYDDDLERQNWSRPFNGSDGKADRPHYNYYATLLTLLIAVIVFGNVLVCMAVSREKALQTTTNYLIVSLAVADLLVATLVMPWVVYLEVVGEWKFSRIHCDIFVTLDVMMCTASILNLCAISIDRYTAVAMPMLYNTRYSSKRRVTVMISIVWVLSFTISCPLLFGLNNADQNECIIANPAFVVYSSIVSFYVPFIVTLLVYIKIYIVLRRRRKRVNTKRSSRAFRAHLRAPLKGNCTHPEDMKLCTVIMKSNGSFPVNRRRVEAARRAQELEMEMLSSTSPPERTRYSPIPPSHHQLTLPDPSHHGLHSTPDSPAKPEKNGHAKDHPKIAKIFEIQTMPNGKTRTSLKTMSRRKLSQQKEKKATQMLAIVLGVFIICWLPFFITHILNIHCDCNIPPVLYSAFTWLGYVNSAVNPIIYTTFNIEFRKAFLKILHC
Procedure: as §1, §2, §3, §4, §5

[3] = test system: dopaminergic cells in the ventral tegmentum area of the rat; assay: Test recording the unitary extracellular electrical activity in the ventral tegmentum area of the rat; format: in vivo; settings: n = 4
Procedure: 1. Test recording the unitary extracellular electrical activity in the ventral tegmentum area of the rat
The administration of a dopaminergic agonist decreases the discharge frequency of neurons in a dose-dependent manner. That effect is reversed by haloperidol, a dopaminergic antagonist.
The rats are anaesthetised with chloral hydrate (400 mg/kg, i.p.) and placed in a stereotactic apparatus (Unimecanique, France) after catheterisation of the femoral vein. The level of anaesthesia is maintained by i.p. administration of chloral hydrate every hour; the rectal temperature is maintained at 37±1° C. by means of a thermostatically controlled heated cover. A tungsten microelectrode (10 M.OMEGA., 1 μm) is inserted using an electronic microinsertion device (Unimecanique, France) into the ventral tegmentum area (AP: -5.5/bregma; L: 0.7; H: 7.0-8.5/dura; Paxinos and Watson atlas, 1986). The potentials of the dopaminergic cells are recognised by their morphology (triphasic potentials+/-/+, of a duration greater than 3 msec), their discharge rhythm, whether regular or in bursts of decreasing amplitude, and their discharge frequency, which is from 2 to 8 Hz. A single cell per animal is used for the recording.
After a period≥5 min. (basal activity) and a first injection of carrier (distilled water to which a few drops of dilute lactic acid have been added; pH adjusted to 5 with 1N NaOH), the products of the invention are administered intravenously in cumulatively increasing doses at intervals of 2-3 min..
Acquisition of the data is effected by the software Spike2 (Cambridge Electronic Design, England). The discharge frequency is measured over one minute at the maximum variation between each injection and is expressed as a percentage variation in relation to the basal activity (average of the 5 minutes preceding the first treatment) defined as 100%. The effect of the products is evaluated statistically by a variance analysis over repeated measurements, followed by a Newman-Keuls test for comparing the effects of different doses with the effect of the carrier.

[4] = Forced swimming test; format: in vivo, rat
Source text: The forced swimming test (Porsolt R. et al, Eur. J. Pharmacol., 1978, 47, 379-91) is a behavioural test which comprises inducing a state of despair in the rat by placing the naive animal in an enclosure full of water, from which it cannot escape, for a period of fifteen minutes. For the first five to ten minutes the rat struggles vigorously, but finally adopts an immobile posture during the last part of the test. Placed in the same enclosure the next day, the animal remains immobile for the majority of the test (5 minutes' duration). The anti-depressants reduce the duration of immobility of the rat during the test.
The experiment is carried out over two days, with a 24-hour interval, on rats of an average weight of 170 g, housed the day before in individual cages, with free access to food and drink.
On the first day, each rat is placed for fifteen minutes in a glass cylinder (20 cm diameter ×40 cm high) filled to a height of 15 cm with water maintained at 25° C. On the second day, the animal is placed in a cylinder again for a period of five minutes; the total period of immobility (in seconds) of the rat is measured. The product or solvent is administered to the animal thirty minutes before the beginning of the test.

[5] = "Rotations" induced by dopaminergic agonists in rats having a unilateral lesion of the Substantia nigra; format: in vivo, male Wistar rats; settings: Rattus norvegicus, sc; read-out: dose from which active in the rotation test
[6] = [125I]-iodosulpride, CHO membranes, 30 min at 30° C., pKi = -log Ki

T1 sequence (P35462 whole entry): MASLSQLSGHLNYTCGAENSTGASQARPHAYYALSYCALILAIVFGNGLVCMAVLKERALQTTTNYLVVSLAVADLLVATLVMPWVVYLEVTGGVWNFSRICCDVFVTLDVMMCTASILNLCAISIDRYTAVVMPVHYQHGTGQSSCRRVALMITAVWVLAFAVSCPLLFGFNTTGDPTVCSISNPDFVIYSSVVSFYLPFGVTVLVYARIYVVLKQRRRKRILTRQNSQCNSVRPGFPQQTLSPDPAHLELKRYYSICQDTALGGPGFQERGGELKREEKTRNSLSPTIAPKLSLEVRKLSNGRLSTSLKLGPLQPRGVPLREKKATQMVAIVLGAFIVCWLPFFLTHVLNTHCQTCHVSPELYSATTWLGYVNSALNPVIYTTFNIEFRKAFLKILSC

In the case of `CCCN1CCO[C@@H]2c3cc(C(N)=O)ccc3CC[C@H]21` (single isomer, unassigned) [Example 3, (+)-Trans-3,4,4a,5,6,10b-hexahydro-9-carbamoyl-4-propyl-2H-naphtho[1,2-b]-1,4-oxazine], the Ki [1, 6] is reported as 10 nM, the Ki [2, 6] is reported as 316 nM and the “discharge frequency, percentage in relation to basal activity (100%)” value (“discharge frequency, percentage … (100%)” for short) ([3]; 0.5 μg/kg i.v., cumulative doses, mean ± standard error of the mean) is reported as 80.4 ± 5.54%. The “discharge frequency, percentage … (100%)” value ([3]; 1 μg/kg i.v., cumulative doses, mean ± standard error of the mean, p ≤ 0.05) was 56.6 ± 11.4%, the “discharge frequency, percentage … (100%)” value ([3]; 2 μg/kg i.v., cumulative doses, mean ± standard error of the mean, p ≤ 0.05) was 25.0 ± 8.68% and the “discharge frequency, percentage … (100%)” value ([3]; 4 μg/kg i.v., cumulative doses, mean ± standard error of the mean, p ≤ 0.05) was 1.56 ± 1.12%. For the same compound, the “discharge frequency, percentage … (100%)” value ([3]; 8 μg/kg i.v., cumulative doses, p ≤ 0.05) was 0.00%, the ED50 ([4]; Rattus norvegicus, sc, read-out: ID50 (period of immobility)) was 0.41 mg/kg and the “period of immobility (result in words)” value ([4]; s.c.) was “reduces the period of immobility of the animal in a dose-dependent manner”. It also gave a minimal effective dose [5] of 0.04 mg/kg.

Compound “[^125 I]-iodosulpride [[125I]-iodosulpride, reference compound]” has a Kd ([1]; radioligand, read-out: Kd (dissociation constant) for the human D3 receptor) of 1.31 nM and a Kd ([2]; radioligand, read-out: Kd (dissociation constant) for the human D2 receptor) of 0.5 nM.

With `O=C(CCCN1CCC(O)(c2ccc(Cl)cc2)CC1)c1ccc(F)cc1` [haloperidol, reference compound] the “discharge frequency, percentage … (100%)” value ([3]; haloperidol 16 μg/kg i.v., reversal after cumulative doses of Example 3, mean ± standard error of the mean) was 110.5 ± 14.9%.
